From US11168087B2, “Substituted imidazo[1,2-b]pyridazines, substituted imidazo[1,5-b]pyridazines, related compounds, and their use in the treatment of medical disorders” (BIAL—R&D Investments, S.A., priority 2016, dated 2021)
Each block holds one compound with its values, some of them ahead of it.

Target: T1, glucocerebrosidase (Gcase) (Homo sapiens, UniProt P04062)
T1 construct: micellar solution containing 10 nM GCase and 100 nM saposin C
T1 sequence (P04062 40-536): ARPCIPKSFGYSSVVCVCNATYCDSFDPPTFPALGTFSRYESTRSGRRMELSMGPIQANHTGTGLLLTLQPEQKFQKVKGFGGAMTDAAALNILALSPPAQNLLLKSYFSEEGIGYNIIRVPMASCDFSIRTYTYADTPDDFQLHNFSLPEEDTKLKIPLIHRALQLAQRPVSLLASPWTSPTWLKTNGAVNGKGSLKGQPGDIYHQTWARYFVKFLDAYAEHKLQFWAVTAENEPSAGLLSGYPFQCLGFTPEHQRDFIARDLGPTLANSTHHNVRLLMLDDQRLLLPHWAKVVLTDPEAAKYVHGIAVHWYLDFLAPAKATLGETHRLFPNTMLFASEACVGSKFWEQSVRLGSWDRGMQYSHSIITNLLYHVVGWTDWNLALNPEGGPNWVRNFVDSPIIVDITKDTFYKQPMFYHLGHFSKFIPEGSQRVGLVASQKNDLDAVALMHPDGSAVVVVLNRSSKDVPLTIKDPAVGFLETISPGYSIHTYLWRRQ
Assay: Glucocerebrosidase (Gcase) activation assay, 4-methylumbelliferyl-beta-D-glucopyranoside substrate, with saposin C
Assay type: biochemical
Conditions: 0.25 h; for activation at 0.1 µM: read-out: Percent Gcase Activation 0.1 μM Test Compound; for activation at 1 µM: read-out: Percent Gcase Activation 1 μM Test Compound
Procedure: The ability of exemplary compounds to activate glucocerebrosidase (Gcase) was measured.
A 484 μL aliquot of a 1.0 mg/mL solution of phosphatidylserine (PS) (Sigma P7769) in chloroform was evaporated under a stream of nitrogen for 1 hour. The lipid film was dissolved over 4 minutes of vigorous vortexing in 40 mL of 176 mM K2HPO4/50 mM citric acid (pH 4.7) containing 7.5 μL of triton X-100, resulting in a mixed micellar preparation with a composition of 0.32 mM triton and 0.37 mol % PS. 4-Methylumbelliferyl-beta-D-glucopyranoside (ACROS-337025000) was dissolved in the micellar solution to a final concentration of 2 mM for use as the reaction substrate.
Test compounds were diluted to the desired concentrations with dimethylsulfoxide (DMSO) from 10 mM stocks, and 0.41 μL of the DMSO compound mixture was added to 100 μL of micellar solution containing 10 nM GCase and 100 nM saposin C (Enzo ALX-201-262-C050). Pre-incubation was allowed to occur for 30 minutes at room temperature, after which the reaction was initiated by combining 25 μL of substrate solution with 25 μL of compound/GCase/saposin mixture. The reaction proceeded for 15 minutes at room temperature and was stopped by adding 150 μL of 1M glycine, pH 12.5. The endpoint of the reaction was monitored by measuring fluorescence intensity (excitation: 365 nm; emission: 440 nm) on a SpectraMax i3 instrument (Molecular Devices). Test compounds were screened at 1.0 and 0.1 μM final concentration, and subsequent 8-point dose response curves were obtained using 3-fold dilutions from a maximum final concentration of 5 μM.
The symbol “+” indicates less than 5% Gcase activation; the symbol “++” indicates Gcase activation in the range of 5% up to 20%; and the symbol “+++” indicates Gcase activation greater than 20%.

SMILES: Cc1cc(C)c2cnc(C(=O)NC3CCCc4ccccc43)n2n1 (centres unmarked)
activation at 0.1 µM: 5 to 20%
activation at 1 µM: > 20%

SMILES: Cc1cc(C)c2snc(C(=O)Nc3ccc4c(c3)CCC4)c2n1 [N-(2,3-Dihydro-1H-inden-5-yl)-5,7-dimethylisothiazolo[4,5-b]pyridine-3-carboxamide]
activation at 0.1 µM: > 20%
activation at 1 µM: > 20%

SMILES: Cc1cc(C)c2cnc(C(=O)Nc3ccc(-c4cocn4)cc3)n2n1
activation at 0.1 µM: < 5%
activation at 1 µM: > 20%

SMILES: Cc1cc(C)c2onc(C(=O)NC(C3CC3)C(F)(F)F)c2n1 (centres unmarked) [N-(1-Cyclopropyl-2,2,2-trifluoroethyl)-5,7-dimethylisoxazolo[4,5-b]pyridine-3-carboxamide]
activation at 0.1 µM: < 5%
activation at 1 µM: > 20%

SMILES: CCCCCO[C@H]1CC[C@H](NC(=O)c2coc3c(C)cc(C)nc23)CC1 [5,7-Dimethyl-N-((1R,4R)-4-(pentyloxy)cyclohexyl)furo[3,2-b]pyridine-3-carboxamide]
activation at 0.1 µM: 5 to 20%
activation at 1 µM: > 20%

SMILES: Cc1cc(-c2cccc(F)c2)nn2c(C(=O)N[C@H](C3CC3)C(F)(F)F)ncc12 [(R)—N-(1-Cyclopropyl-2,2,2-trifluoroethyl)-2-(3-fluorophenyl)-4-methylimidazo[1,5-b]pyridazine-7-carboxamide]
activation at 0.1 µM: > 20%
activation at 1 µM: > 20%

SMILES: Cc1cc(C)c2onc(C(=O)Nc3ccc4c(c3)CCC4)c2n1 [N-(2,3-Dihydro-1H-inden-5-yl)-5,7-dimethylisoxazolo[4,5-b]pyridine-3-carboxamide]
activation at 0.1 µM: 5 to 20%
activation at 1 µM: > 20%

SMILES: Cc1cc(-c2ccc3ocnc3c2)nn2c(C(=O)N[C@H](C)C(F)(F)F)cnc12
activation at 0.1 µM: 5 to 20%
activation at 1 µM: > 20%

SMILES: Cc1cc(-c2cccnc2)nc2c(C(=O)NC(C3CC3)C(F)(F)F)nsc12 (centres unmarked)
activation at 0.1 µM: < 5%
activation at 1 µM: 5 to 20%

SMILES: Cc1cc(C)c2ncc(C(=O)NC3CCCc4ccccc43)n2n1 (centres unmarked)
activation at 0.1 µM: 5 to 20%
activation at 1 µM: > 20%

SMILES: Cc1cc(C)c2ncc(C(=O)NC3(C)CCCc4ccccc43)n2n1 (centres unmarked)
activation at 0.1 µM: 5 to 20%
activation at 1 µM: > 20%

SMILES: CCCCCO[C@H]1CC[C@H](NC(=O)c2cnc3c(C)cc(C)nn23)CC1
activation at 0.1 µM: 5 to 20%
activation at 1 µM: > 20%

SMILES: Cc1cc(C)c2occ(C(=O)Nc3ccc4c(c3)CCC4)c2n1 [N-(2,3-Dihydro-1H-inden-5-yl)-5,7-dimethylfuro[3,2-b]pyridine-3-carboxamide]
activation at 0.1 µM: 5 to 20%
activation at 1 µM: > 20%

SMILES: CCC(NC(=O)c1cnc2ccc(Cl)nn12)c1ccccc1 (centres unmarked)
activation at 0.1 µM: < 5%
activation at 1 µM: < 5%

SMILES: Cc1cc(-c2ccc(F)cc2C#N)nn2c(C(=O)N[C@@H](C)C(F)(F)F)cnc12
activation at 0.1 µM: 5 to 20%
activation at 1 µM: > 20%

SMILES: CCCCCCOC1CCC(NC(=O)c2cnc3cc(C)c(Cl)nn23)CC1 (centres unmarked)
activation at 0.1 µM: < 5%
activation at 1 µM: < 5%

SMILES: Cc1cc(C)c2cnc(C(=O)Nc3ccc4c(c3)CCC4)n2n1
activation at 0.1 µM: > 20%
activation at 1 µM: > 20%

SMILES: Cc1cc(-c2cccc(C(N)=O)c2)nc2c(C(=O)NC(C3CC3)C(F)(F)F)nsc12 (centres unmarked)
activation at 0.1 µM: < 5%
activation at 1 µM: 5 to 20%

SMILES: Cc1cc(-c2ccc(F)cc2C#N)nn2c(C(=O)N[C@H](C)C3CC3)cnc12
activation at 0.1 µM: < 5%
activation at 1 µM: > 20%

SMILES: Cc1cc2ncc(C(=O)NC3CCCc4ccccc43)n2nc1Cl (centres unmarked)
activation at 0.1 µM: < 5%
activation at 1 µM: 5 to 20%

SMILES: Cc1cc(-c2cccnc2)nc2c(C(=O)NC(C)C3CC3)csc12 (centres unmarked)
activation at 0.1 µM: > 20%
activation at 1 µM: > 20%

SMILES: Cc1cc(-c2ccc(F)cc2C#N)nn2c(C(=O)N[C@@H](C)C3CC3)cnc12
activation at 0.1 µM: 5 to 20%
activation at 1 µM: > 20%

SMILES: Cc1cc2ncc(C(=O)Nc3ccc4c(c3)CCC4)n2nc1Cl
activation at 0.1 µM: < 5%
activation at 1 µM: 5 to 20%

More lines, now with the values ahead:

activation at 0.1 µM: 5 to 20%
activation at 1 µM: > 20%
SMILES: Cc1cc(-c2ccc(C(N)=O)o2)nn2c(C(=O)N[C@@H](C3CC3)C(F)(F)F)ncc12

activation at 0.1 µM: > 20%
activation at 1 µM: > 20%
SMILES: Cc1cc(-c2cccc(F)c2)nn2c(C(=O)NC(C)(C)C3CC3)cnc12

activation at 0.1 µM: > 20%
activation at 1 µM: > 20%
SMILES: Cc1cc(-c2cncc(Cl)c2)nn2c(C(=O)N[C@@H](C3CC3)C(F)(F)F)cnc12

activation at 0.1 µM: > 20%
activation at 1 µM: > 20%
SMILES: Cc1cc(-c2ccc3ocnc3c2)nn2c(C(=O)N[C@H](C3CC3)C(F)(F)F)cnc12

activation at 0.1 µM: 5 to 20%
activation at 1 µM: > 20%
SMILES: Cc1cc(-c2cccc(F)c2)nn2c(C(=O)NC(C)C(F)(F)F)cnc12 (centres unmarked)

activation at 0.1 µM: < 5%
activation at 1 µM: > 20%
SMILES: Cc1cc(N2CC(C(C)C)OC2=O)nn2c(C(=O)N[C@@H](C3CC3)C(F)(F)F)cnc12 (stereo partly drawn) [N—((S)-1-Cyclopropyl-2,2,2-trifluoroethyl)-6-(5-isopropyl-2-oxooxazolidin-3-yl)-8-methylimidazo[1,2-b]pyridazine-3-carboxamide]

activation at 0.1 µM: > 20%
activation at 1 µM: > 20%
SMILES: Cc1cc(C#N)c(-c2cc(C)c3ncc(C(=O)N[C@@H](C)C(F)(F)F)n3n2)o1

activation at 0.1 µM: 5 to 20%
activation at 1 µM: > 20%
SMILES: Cc1cncc(-c2cc(C)c3ncc(C(=O)N[C@H](C4CC4)C(F)(F)F)n3n2)c1

activation at 0.1 µM: > 20%
activation at 1 µM: > 20%
SMILES: Cc1cc(-c2ccc(C#N)o2)nn2c(C(=O)N[C@@H](C3CC3)C(F)(F)F)ncc12

activation at 0.1 µM: < 5%
activation at 1 µM: > 20%
SMILES: Cc1cc(C)c2cnc(C(=O)NC(C3CC3)C(F)(F)F)n2n1 (centres unmarked)

activation at 0.1 µM: < 5%
activation at 1 µM: > 20%
SMILES: Cc1cncc(-c2cc(C)c3ncc(C(=O)N[C@@H](C4CC4)C(F)(F)F)n3n2)c1

activation at 0.1 µM: > 20%
activation at 1 µM: > 20%
SMILES: Cc1cc(-c2ccc(F)o2)nn2c(C(=O)NC(C3CC3)C(F)(F)F)cnc12 (centres unmarked)

activation at 0.1 µM: 5 to 20%
activation at 1 µM: > 20%
SMILES: Cc1cc(-c2ccon2)nn2c(C(=O)NC(C3CC3)C(F)(F)F)cnc12 (centres unmarked)

activation at 0.1 µM: 5 to 20%
activation at 1 µM: > 20%
SMILES: Cc1cc(-c2cc(C)c3cnc(C(=O)N[C@@H](C4CC4)C(F)(F)F)n3n2)sn1 [(S)—N-(1-Cyclopropyl-2,2,2-trifluoroethyl)-4-methyl-2-(3-methylisothiazol-5-yl)imidazo[1,5-b]pyridazine-7-carboxamide]

activation at 0.1 µM: > 20%
activation at 1 µM: > 20%
SMILES: Cc1cc(-c2ccc(C#N)o2)nn2c(C(=O)N[C@H](C3CC3)C(F)(F)F)cnc12

activation at 0.1 µM: 5 to 20%
activation at 1 µM: > 20%
SMILES: Cc1cc(-c2cccnc2F)nn2c(C(=O)NC(C3CC3)C(F)(F)F)cnc12 (centres unmarked)

activation at 0.1 µM: 5 to 20%
activation at 1 µM: > 20%
SMILES: Cc1cc(-c2ccc3c(c2)ncn3C)nn2c(C(=O)N[C@H](C3CC3)C(F)(F)F)cnc12

activation at 0.1 µM: 5 to 20%
activation at 1 µM: > 20%
SMILES: Cc1cc(-c2ccc3ncn(C)c3c2)nn2c(C(=O)N[C@H](C3CC3)C(F)(F)F)cnc12 [(R)—N-(1-Cyclopropyl-2,2,2-trifluoroethyl)-8-methyl-6-(1-methyl-1H-benzo[d]imidazol-6-yl)imidazo[1,2-b]pyridazine-3-carboxamide]

activation at 0.1 µM: < 5%
activation at 1 µM: > 20%
SMILES: Cc1ccc(-c2cc(C)c3ncc(C(=O)N[C@@H](C4CC4)C(F)(F)F)n3n2)cn1 [(S)-6-(6-Methylpyridin-3-yl)-N-(1-cyclopropyl-2,2,2-trifluoroethyl)-8-methylimidazo[1,2-b]pyridazine-3-carboxamide]

activation at 0.1 µM: 5 to 20%
activation at 1 µM: > 20%
SMILES: Cc1cc(-c2ccc3c(c2)ncn3C)nn2c(C(=O)N[C@@H](C3CC3)C(F)(F)F)cnc12

activation at 0.1 µM: 5 to 20%
activation at 1 µM: > 20%
SMILES: Cc1ccc(-c2cc(C)c3ncc(C(=O)N[C@H](C4CC4)C(F)(F)F)n3n2)cn1 [(R)-6-(6-Methylpyridin-3-yl)-N-(1-cyclopropyl-2,2,2-trifluoroethyl)-8-methylimidazo[1,2-b]pyridazine-3-carboxamide]

activation at 0.1 µM: 5 to 20%
activation at 1 µM: > 20%
SMILES: Cc1cc(-c2cccc3ncoc23)nn2c(C(=O)NC(C3CC3)C(F)(F)F)cnc12 (centres unmarked)

activation at 0.1 µM: 5 to 20%
activation at 1 µM: > 20%
SMILES: Cc1cc(-c2ccc(F)cc2)nn2c(C(=O)N[C@@H](C)C3CC3)cnc12
